Where “and” joins values, the source holds several entries; their conditions need not be identical. Equal entries are not always repeated.
Legend:
[1] = design: method as in PMID 29454190; conditions: predicted; ref [34]; cited from earlier work
[2] = design: method as in PMID 29454190; conditions: predicted, ref [34], cited from earlier work
[3] = test system: human lung cancer cells (A549); experiment: MTT cell viability assay, A549; type: cell-based; conditions: 72 h
Protocol: (§1) Experiments were performed on human prostate cancer cells (DU145; ATCC HTB-81), human lung cancer cells (A549; ATCC CCL-185-LUC2) and human bronchial epithelium cells (BEAS-2B; ATCC CRL-9609). Cells were grown in Dulbecco's modified Eagle's medium (DMEM) supplemented with 10% of heat-inactivated foetal bovine serum (FBS), 100 U/ml penicillin and 100 μg/ml streptomycin (Sigma-Aldrich, Steinheim, Germany). Cells were incubated at 37 °C in a humidified atmosphere with 5% CO2. […] Cells were seeded into 96-well plates at a density of 7,0 × 10[3] cells/well in 100 µl of culture medium. After 24 h, cells were treated with the compounds at three different concentrations (1 µM, 10 µM and 50 µM) for 72 h. Following treatments, 0.5 mg/ml of 3-[4,5-dimethylthiazol-2-yl]-2,5-diphenyltetrazolium bromide (MTT) (Sigma Aldrich) was added to each well and incubated for 4 h at 37 °C. Finally, DMSO was used to dissolve formazan salts and absorbance was measured at 570 nm in a microplate reader (Biotek Synergy-HT). […]
(§2) Compound 3 was preliminarily assessed for its cytotoxic activity towards human prostate and lung cancer cell lines (DU145 and A549, respectively), in which the overexpression of the HO-1 has been confirmed[46]^,[47]. […] Cell survival was calculated compared to untreated controls for 72 h. At the end of treatment, cell viability was evaluated using the MTT assay. […]

[4] = test system: human prostate cancer cells (DU145); experiment: MTT cell viability assay, DU145; type: cell-based; conditions: 72 h
Protocol: as §1, §2

HO-1 = target: T1, HO-1 (Rattus norvegicus, UniProt P06762); experiment: HO-1 enzymatic activity in the microsomal fraction of rat spleen (bilirubin formation); type: biochemical; conditions: mean ± SD of triplicate assays
T1 construct: selected in order to use the most native (i.e. closest to in vivo) forms of HO-1; from tissue; host or cells: rat spleen microsomal fraction (male Sprague-Dawley rats)
T1 sequence (P06762 1-289): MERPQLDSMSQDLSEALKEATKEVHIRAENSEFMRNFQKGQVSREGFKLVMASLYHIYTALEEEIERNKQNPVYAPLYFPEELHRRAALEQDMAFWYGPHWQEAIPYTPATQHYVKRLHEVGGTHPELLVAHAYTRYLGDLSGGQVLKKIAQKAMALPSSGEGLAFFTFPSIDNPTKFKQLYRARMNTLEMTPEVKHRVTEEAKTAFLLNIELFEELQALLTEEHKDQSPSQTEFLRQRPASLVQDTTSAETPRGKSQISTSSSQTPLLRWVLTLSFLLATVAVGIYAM
Protocol: Since the dominance of HO-1 protein in the rat spleen has been well documented, HO-1 was obtained from rat spleen as the microsomal fraction prepared by differential centrifugation. This particular microsomal preparation was selected in order to use the most native (i.e. closest to in vivo) forms of HO-1. Spleen (Sprague-Dawley rats) microsomal fractions were prepared according to the procedure outlined by Ryter et al.[33]. The experiments reported in the present paper complied with current Italian law and met the guidelines of the Institutional Animal Care and Use Committee of […] OF HEALTH (Directorate General for Animal Health and Veterinary Medicines) (Italy). […]
Liver cytosol has been used as a source of BVR. […] The 100,000 g supernatant was saved and then stored in small amounts at −80 °C after its protein concentration was measured.
The HO-1 activity was determined by measuring the bilirubin formation using the difference in absorbance at 464 to 530 nm as described by Ryter et al.[33]. […] After recovering the chloroform phase, the amount of bilirubin formed was measured with a double-beam spectrophotometer as OD464-530 nm (extinction coefficient, […] for bilirubin). […]
Inhibition activity assay for HO-1 was performed by extracting the enzyme from the rat spleen microsomal fraction. […] Results are expressed as enzyme inhibition activity (IC50) in μM (Table S2, Supplemental material).

[5] = Chemical stability of 3 in buffer solutions at different pHs (HPLC); type: physicochemical; conditions: 37 °C
Protocol: The HPLC analysis of samples at various time intervals from in vitro stability in different buffers and porcine esterase solution was performed on Shimadzu Prominence-i LC-2030C 3 D Plus equipped with RID20A. Detector chromatographic separation were carried out using Chromolith SpeedROD RP […], Merck. Spectra were analysed in 200–800 nm range with 1.2 nm resolution. The column was maintained at 30 °C and eluted under gradient conditions from 100% to 0% of eluent A over 3 min, at a flow rate of 5 ml min^−1. Eluent A: water/trifluoroacetic acid (0.1%, v/v); eluent B: acetonitrile/ trifluoroacetic acid (0.1%, v/v).
A stock solution of compound 3 in DMSO (3.0 mg/mL) was prepared. To a test tube containing 0.9 ml of the corresponding Acetate (pH = 2.0) or PBS buffer solution (pH = 7.4 and 8.0, respectively), 0.1 ml of stock solution was added, and the mixture stirred and thermostated in a sand bath at 37 °C. Aliquots (0.1 ml) were withdrawn at specific time intervals and transferred to sample vials containing acetonitrile (0.9 ml). The percentage of compound remaining was followed by HPLC analysis. The retention time (tR) of compound 1, 2, and 3 were 0.74, 0.89, and 0.95 min, respectively. All the experiments were performed in triplicate.
0.001 g of lyophilised powder of esterase from the porcine liver (Sigma-Aldrich, St. Louis, Missouri, USA) was reconstituted in 1.0 ml PBS buffer (0.01 M, pH 7.4) to make an aqueous porcine esterase solution (5 U/mL), and then pre-thermostated at 37 °C. To a test tube containing 1.85 ml of PBS buffer, 0.15 ml from the stock solution of the test compound was added. The mixture was then stirred and thermostated in a sand bath at 37 °C, and 1.0 ml of the porcine esterase solution was added to initiate the enzymatic reaction. For the negative control reaction, the volume of porcine esterase solution was replaced by phosphate buffer. Aliquots (0.3 ml) were withdrawn at 0, 30, 60, 120, 180, and 240 min, and quenched with cold acetonitrile (0.7 ml)[28]. The samples were centrifuged for 6 min at 10,000 rpm, and supernatants were analysed by HPLC to check the amounts (area under the curve, AUC) of the remaining intact compound. All the experiments were performed in triplicate. Pseudo-first-order rate constant for the hydrolysis was determined from the slope of linear plots of the natural logarithm (ln) of the AUC of the peak at time t (AUCt) against time. Half-life (t1/2) was calculated according to Equation (1): (1) t1/2 = ln 2/k were k is the pseudo-first-order rate constant.
The chemical stability of 3 was evaluated at different pH values to mimic physiological conditions, including gastrointestinal (GI) tract (pH = 2.0), human plasma (pH = 7.4), and pancreatic fluid (pH = 8.0). As a result, the pH value strongly affected the chemical stability and hydrolysis rate of the hybrid 3 (Figure 2).

SMILES: OC(Cn1ccnc1)c1cccc(Br)c1 (centres unmarked) [Compound 1, 1–(3-bromophenyl)-2-(1H-imidazol-1-yl)ethanol]
- Toxicity prediction: Irritant [1]: none
- Toxicity prediction: Mutagenic [1]: none
- Toxicity prediction: Reproductive Effects [1]: none
- Toxicity prediction: Tumorigenic [1]: none
- HIA (%) ([2]; human intestinal absorption): 96.1%
- Papp ([2]; in vitro Caco-2 cell permeability): 2.96 ×10⁻⁶ cm/s
- PPB (%) ([2]; in vitro plasma protein binding): 65%
- BBB (Cbrain/Cblood) ([2]; in vivo blood-brain barrier penetration): 0.7 Cbrain/Cblood
- Effect on cell viability ([3]; A549 cells, 1, 10 and 50 μM): no cytotoxic effect
- Effect on cell viability ([4]; DU145 cells, 1, 10 and 50 μM): no cytotoxic effect

SMILES: O=C(O)CCC(=O)OC(Cn1ccnc1)c1cccc(Br)c1 (centres unmarked) [Compound 2, 4‐[1‐(3‐bromophenyl)‐2‐(1H‐imidazol‐1‐yl)ethoxy]‐4‐oxobutanoic acid]
- IC50 (HO-1): 105 ± 5.8 µM
- melting point: 64 to 66.5 °C

SMILES: O=C(CCC(=O)OC(Cn1ccnc1)c1cccc(Br)c1)OCn1cc(F)c(=O)[nH]c1=O (centres unmarked) [Compound 3, 1‐[1‐(3‐bromophenyl)‐2‐(1H‐imidazol‐1‐yl)ethyl]4‐(5‐fluoro‐2,4‐dioxo‐1,2,3,4‐tetrahydropyrimidin‐1‐yl)methyl butanedioate]
- half-life at 0.15 mg/mL ([5]; PBS buffer without esterase, PBS buffer (pH = 7.4), no esterase, read-out: Half-life (t1/2) of hydrolysis): 28.1 h
- % Compound remaining ([5]; pH = 2.0, 0 h): 100 ± 0.0%
- % Compound remaining ([5]; pH = 2.0, 24 h): 94.2 ± 0.9% and 94.2%
- % Compound remaining ([5]; pH = 2.0, 48 h): 92.2 ± 0.6%
- % Compound remaining ([5]; pH = 2.0, 72 h): 86.8 ± 6.0%
- % Compound remaining ([5]; pH = 2.0, 96 h): 77.1 ± 6.5%
- % Compound remaining ([5]; pH = 2.0, 168 h): 73.5 ± 4.7%
- % Compound remaining ([5]; pH = 7.4, 0 h): 100 ± 0.0%
- % Compound remaining ([5]; pH = 7.4, 24 h): 77.3 ± 3.9% and 77.3%
- % Compound remaining ([5]; pH = 7.4, 48 h): 71.2 ± 4.5%
- % Compound remaining ([5]; pH = 7.4, 72 h): 52.6 ± 3.8%
- % Compound remaining ([5]; pH = 7.4, 96 h): 34.7 ± 2.2%
- % Compound remaining ([5]; pH = 7.4, 168 h): 18.0 ± 4.2%
- % Compound remaining ([5]; pH = 8.0, 0 h): 100 ± 0.0%
- % Compound remaining ([5]; pH = 8.0, 24 h): 50.4 ± 2.4% and 50.4%
- % Compound remaining ([5]; pH = 8.0, 48 h): 36.1 ± 2.1%
- % Compound remaining ([5]; pH = 8.0, 72 h): 19.7 ± 1.6%
- IC50 (HO-1): 82 ± 2.1 µM

SMILES: O=c1[nH]cc(F)c(=O)[nH]1 [Compound 5-FU, 5-Fluorouracil, reference compound]
- IC50 ([3]; Homo sapiens, A549 cells, MTT): 0.98 ± 0.13 µM
- IC50 ([4]; Homo sapiens, DU-145, DU145 cells, MTT): 31.7 ± 0.92 µM

From PMC8231349 (Journal of Enzyme Inhibition and Medicinal Chemistry, 2021)
